Paper PMC4841536, “Characterization of the Anti-HCV Activities of the New Cyclophilin Inhibitor STG-175” (PLoS ONE, 2016)
Like-named read-outs stand apart in the source and are kept apart here.

Legend:
[1] = alamarBlue cytotoxicity (CC50), GT2a replicon cell line; details: human
Protocol: (§1) The anti-HCV activity of STG-175 was conducted using a panel of luciferase reporter replicon cell lines including GT1a, GT1b, GT2a, GT3a and GT4a as we described previously. The GT1a subgenomic renilla luciferase reporter replicon H77 RLucP (7) was supplied by Dr. Delaney. The GT1b subgenomic firefly luciferase reporter replicon pFK-I389/NS3-3’ [29] was supplied by Dr. Bartenschlager. The GT1B subgenomic NS3, NS5A and NS5B mutants were created via homologous recombination using the In-Fusion HD Cloning kit (Clontech) as we described previously. The GT2a genomic luciferase reporter replicon Luc-Neo-JFH-1 was generated as previously. The plasmid pFK-Luc-JFH1 was supplied from Drs. […] The CellTiter-Fluor™ Cell Viability Assay is a non-lytic fluorescence assay, which measures the number of live cells. […] Luciferase activity was determined using the Luciferase Assay System (Promega) in a Berthold luminometer. […] Viable cells continuously convert resazurin to resorufin, increasing the overall fluorescence and color of the media surrounding cells.
(§2) Fig 2 Anti-HCV activities of STG-175 among GTs. […] Luciferase activity was determined using the Luciferase Assay System in a Berthold luminometer. […] Data are expressed as mean of relative light units and calculated EC50s are presented. […]

GT2a replicon cell line = assay: as above; details: GT2a replicon cell line
Protocol: as §1, §2

[2] = test system: wild-type Con1 GT1b replicon; assay: Electroporated Con1 RNA replication in Huh7.5.1 cells (RT-qPCR), wild-type; format: cell-based; details: Hepatitis C virus
From the text: The GT1b subgenomic firefly luciferase reporter replicon pFK-I389/NS3–3 was provided by R. Bartenschlager. The GT1B subgenomic NS3, NS5A and NS5B mutants were created via homologous recombination using the In-Fusion HD Cloning kit (Clontech) as we described previously. […] The in vitro transcription of wild-type and mutant Con1 RNA was accomplished using the T7 MEGAscript kit (Ambion) by following the manufacturer’s instructions. In vitro-transcribed RNAs were introduced into Huh7.5.1 cells by electroporation. Trypsinized cells were washed twice and resuspended in phosphate-buffered saline (PBS) (calcium-free and magnesium-free) at 1x 10^7 cells per ml. Ten micrograms of RNA for each mutant was mixed with 0.4 mL of cells in a 4-mm cuvette, and a Bio-Rad Gene Pulser system was used to deliver a single pulse at 0.27 kV, 100 ohms, and 960 μF. Cells were then plated in 12-well dishes. RNA transfection efficiency and HCV subgenomic replication were assessed by reverse transcription-quantitative PCR (RT-qPCR) and presented as genome equivalents (GE) per microgram of total RNA as described previously. We measured by RT-qPCR the replication of wild-type, STG-175-, NS5Ai-, NS3i- and NS5Bi-resistant mutants in the presence of increasing concentrations of SGT-175, daclatasvir, telaprevir, boceprevir and sofosbuvir over a period of 8 days.
Fig 3 Replicon clearance, replication rebound and resistance analyses. […] Then drugs were removed to allow viral replication rebound to occur. At each passage, samples of cells were collected, RNA extracted and analyzed by RT-PCR for HCV RNA levels. B. Emergence of resistance: Con1 replicon Huh-7 cells were passaged 22 times in the absence or presence of STG-175 or selected DAAs. At each passage, sample of cells were collected, RNA extracted and analyzed by RT-PCR for HCV RNA levels. C. […] Data are expressed as number of HCV RNA copies per cell. […] Data are expressed as mean of relative light units and calculated EC50s are presented. […] E. Degree of resistance of D320E and Y321N Con1 variants: Left panel. Wild-type (WT), D320E and D320/Y321N NS5A Con1 RNA were electroporated into Huh7.5.1 cells and replication monitored over 8 days by quantifying the levels of intracellular HCV RNA. Right panel. Same as just above except that increasing concentrations of STG-175 were added at the time of the electroporation. […] STG-175 is taken as the substance from the printed x-axis title 'STG-175 in Log nM'.
To determine whether the D320E and Y321N substitutions truly render HCV resistant to STG-175, they were introduced into wild-type Con1 replicon as we described previously. Introduction of the substitutions was verified by sequencing. In vitro-transcribed wild-type, D320E and D320E/Y321N HCV RNAs were then electroporated into Huh7.5.1 cells and viral replication assessed by RT-qPCR and presented as GE per microgram of total RNA as we described previously. […] We then analyzed the replication of wild-type, D320E and D320E/Y321N in the presence of increasing concentrations of SGT-175 over a period of 8 days.
Fig 5 Cross-resistance analyses.

## CC=CCC(C)C(O)C1C(=O)NC(CC)C(=O)N(C)C(CSCCCCO)C(=O)N(C)C(CC(C)(C)O)C(=O)NC(C(C)C)C(=O)N(C)C(CC(C)C)C(=O)NC(C)C(=O)NC(C)C(=O)N(C)C(CC(C)C)C(=O)N(C)C(CC(C)C)C(=O)N(C)C(C(C)C)C(=O)N1C (centres unmarked) [STG-175]
[1]
  CC50 at 72 h: > 10000 nM
GT2a replicon cell line
  cell viability toward increasing doses (alamarBlue): lack of cellular cytotoxicity
[2]; Huh-7.5.1, 144 h, read-out: EC50, WT replicon
  EC50: 35.7 nM
[2]; Huh-7.5.1, 192 h, read-out: EC50, WT replicon
  EC50: 34.4 nM
[2]; Huh-7.5.1, 192 h, read-out: EC50 GT1b WT
  EC50: 10.6 nM
